Data taken from patent US20070059369A1, “Subcutaneous delivery system, process for the preparation of the same and use of the same for the treatment of cholinergic deficient disorders” (priority 2003, published 2007).

What was measured:
[1] = aged patients and patients suffering from Alzheimer's disease; cited from earlier work
[2] = system: cerebral hypoxia-ischemia rat model; conditions: cited from earlier work
acetylcholinesterase = acetylcholinesterase (Homo sapiens, UniProt P22303); conditions: from EP 0 806 416; cited from earlier work
[3] = system: acetylcholinesterase (AChE); assay: Inhibition of acetylcholinesterase; type: biochemical; conditions: different species (rat, bovine and human)
[4] = biological target: butyrylcholinesterase (BuChE) (Homo sapiens, UniProt P06276); assay: Inhibition of butyrylcholinesterase; type: biochemical; conditions: in contrast to AChE
Chain of butyrylcholinesterase (BuChE) (P06276 29-602): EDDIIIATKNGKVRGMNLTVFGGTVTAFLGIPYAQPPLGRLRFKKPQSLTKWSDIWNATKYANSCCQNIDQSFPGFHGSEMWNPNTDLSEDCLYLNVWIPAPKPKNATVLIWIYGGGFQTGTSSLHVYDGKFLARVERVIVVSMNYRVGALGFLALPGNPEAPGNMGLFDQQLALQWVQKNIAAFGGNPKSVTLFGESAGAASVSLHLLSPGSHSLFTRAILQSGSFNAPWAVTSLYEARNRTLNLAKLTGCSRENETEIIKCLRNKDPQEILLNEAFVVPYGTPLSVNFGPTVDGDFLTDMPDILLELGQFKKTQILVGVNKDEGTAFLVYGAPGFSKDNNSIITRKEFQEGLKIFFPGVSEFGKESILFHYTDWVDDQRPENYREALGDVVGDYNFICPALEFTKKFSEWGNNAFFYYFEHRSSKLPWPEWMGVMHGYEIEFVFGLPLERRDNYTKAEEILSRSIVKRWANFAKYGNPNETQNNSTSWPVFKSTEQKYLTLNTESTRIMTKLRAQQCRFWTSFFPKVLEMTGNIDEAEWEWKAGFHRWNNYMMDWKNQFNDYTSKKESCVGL

Chain of acetylcholinesterase (P22303 32-614): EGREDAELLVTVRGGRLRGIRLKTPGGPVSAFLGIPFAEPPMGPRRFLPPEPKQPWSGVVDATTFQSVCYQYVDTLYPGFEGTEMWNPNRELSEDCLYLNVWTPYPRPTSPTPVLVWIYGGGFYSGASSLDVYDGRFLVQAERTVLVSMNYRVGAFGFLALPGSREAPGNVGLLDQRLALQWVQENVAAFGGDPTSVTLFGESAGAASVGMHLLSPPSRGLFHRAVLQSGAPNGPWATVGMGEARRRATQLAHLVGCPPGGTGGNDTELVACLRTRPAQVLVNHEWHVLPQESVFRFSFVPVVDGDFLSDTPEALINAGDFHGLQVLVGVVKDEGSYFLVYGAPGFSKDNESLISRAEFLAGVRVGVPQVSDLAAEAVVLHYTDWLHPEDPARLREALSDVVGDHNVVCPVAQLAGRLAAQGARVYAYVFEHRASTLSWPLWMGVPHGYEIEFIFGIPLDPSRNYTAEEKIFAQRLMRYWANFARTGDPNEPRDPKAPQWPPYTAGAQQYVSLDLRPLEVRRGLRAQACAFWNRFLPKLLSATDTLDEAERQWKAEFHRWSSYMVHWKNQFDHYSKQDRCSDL

SMILES | Memory-enhancing effects [1] | Neuroprotective effect of rescue treatment [2] | Selectivity for acetylcholinesterase compared to butyrylcholinesterase (acetylcholinesterase) | Inhibition of acetylcholinesterase (AChE) [3] | Inhibitory activity on butyrylcholinesterase (BuChE) [4]
C/C=C1\[C@H]2C=C(C)C[C@]1(N)c1ccc(=O)[nH]c1C2 [Huperzine A] | memory-enhancing effects | beneficial neuroprotective effect |  |  | 
C/C=C1\C2C=C(C)CC1(/N=C/c1cc(Cl)cc(OC)c1O)c1ccc(=O)[nH]c1C2 (centres unmarked) [derivative of formula (III)] |  |  | highly selective activity in favour of acetylcholinesterase | potent and selective inhibitor | much weaker inhibitory activity
